pIC50: −log10 of the molar value.
Molecular target: ALK2 (Homo sapiens (Human), UniProt Q04771)
Test: ALK2 inhibition, LanthaScreen Eu Kinase Binding Assay (ThermoFisher Scientific / Life Technologies)
Details: read-out: Measured Ki (IC50) Value for Compounds: IC50
Method: Biochemical assays to measure the inhibitory effects of the compounds were performed by ThermoFisher Scientific (Life Technologies). ALK2 inhibition was tested using LanthaScreen™ Eu Kinase Binding Assay screening protocol.

Sequence of ALK2 (Q04771 21-509): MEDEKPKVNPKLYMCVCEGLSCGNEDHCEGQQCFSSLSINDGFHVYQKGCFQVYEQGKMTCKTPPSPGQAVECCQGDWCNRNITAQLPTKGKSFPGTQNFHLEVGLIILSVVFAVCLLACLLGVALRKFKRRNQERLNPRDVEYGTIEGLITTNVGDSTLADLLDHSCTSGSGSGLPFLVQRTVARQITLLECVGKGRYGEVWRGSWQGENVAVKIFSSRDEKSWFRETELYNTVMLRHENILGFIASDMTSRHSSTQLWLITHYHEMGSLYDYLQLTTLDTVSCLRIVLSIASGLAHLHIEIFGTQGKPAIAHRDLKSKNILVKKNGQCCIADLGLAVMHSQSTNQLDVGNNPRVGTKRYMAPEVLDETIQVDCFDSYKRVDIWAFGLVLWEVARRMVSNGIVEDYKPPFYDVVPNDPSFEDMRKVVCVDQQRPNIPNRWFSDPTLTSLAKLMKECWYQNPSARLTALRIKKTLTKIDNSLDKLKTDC

SMILES	pIC50
COc1cc(-n2cnc(Nc3nc(N4CCN(C)CC4)nc4ccoc34)c2)cc(OC)c1OC [Compound 235a, 2-(4-methylpiperazin-1-yl)-N-(1-(3,4,5-trimethoxyphenyl)-1H-imidazol-4-yl)furo[3,2-d]pyrimidin-4-amine]	> 7.00
COc1cc(-c2nnc(Nc3nc(N4CCC[C@H]4CO)c4cccn4n3)o2)cc(OC)c1OC [Compound 418b, (S)-(1-(2-((5-(3,4,5-trimethoxyphenyl)-1,3,4-oxadiazol-2-yl)amino)pyrrolo[2,1-f][1,2,4]triazin-4-yl)pyrrolidin-2-yl)methanol]	< 6.00
COc1cc(-n2cnc(Nc3nc(N4CCC[C@H]4CO)nc4sc(CN5CCC(O)CC5)cc34)c2)cc(OC)c1OC [Compound 102b, (S)-1-((2-(2-(hydroxymethyl)pyrrolidin-1-yl)-4-((1-(3,4,5-trimethoxyphenyl)-1H-imidazol-4-yl)amino)thieno[2,3-d]pyrimidin-6-yl)methyl)piperidin-4-ol]	> 7.00
COc1cc(-n2cnc(Nc3nc(N4CCC[C@H]4C(N)=O)nc4c(OC(C)C)cccc34)c2)cc(OC)c1OC [Compound 143h, (S)-1-(8-isopropoxy-4-((1-(3,4,5-trimethoxyphenyl)-1H-imidazol-4-yl)amino)quinazolin-2-yl)pyrrolidine-2-carboxamide]	> 7.00
COc1cc(-n2cnc(Nc3nc(N4CCC[C@H]4CO)c4c(C)nn([C@H]5CC[C@H](N)CC5)c4n3)c2)cc(OC)c1OC [Compound 435e, ((S)-1-(1-((trans)-4-aminocyclohexyl)-3-methyl-6-((1-(3,4,5-trimethoxyphenyl)-1H-imidazol-4-yl)amino)-1H-pyrazolo[3,4-d]pyrimidin-4-yl)pyrrolidin-2-yl)methanol]	> 7.00
COc1cc(-n2cnc(Nc3nc(N4CCC[C@H]4C(N)=O)c4cc[nH]c4n3)c2)cc(OC)c1OC [Compound 173c, (S)-1-(2-((1-(3,4,5-trimethoxyphenyl)-1H-imidazol-4-yl)amino)-7H-pyrrolo[2,3-d]pyrimidin-4-yl)pyrrolidine-2-carboxamide]	> 7.00
COc1cc(-n2cnc(Nc3nc(N4C[C@@H]5C[C@@H]5[C@@H]4CO)c4cccn4n3)c2)cc(OC)c1OC [Compound 324b, ((1S,2R,5R)-3-(2-((1-(3,4,5-trimethoxyphenyl)-1H-imidazol-4-yl)amino)pyrrolo[2,1-f][1,2,4]triazin-4-yl)-3-azabicyclo[3.1.0]hexan-2-yl)methanol]	6.00 to 7.00
COc1cc(-n2cnc(Nc3nc(N4CCN(CCO)CC4)nc4sccc34)c2)cc(OC)c1OC [Compound 422a, 2-(4-(4-((1-(3,4,5-trimethoxyphenyl)-1H-imidazol-4-yl)amino)thieno[2,3-d]pyrimidin-2-yl)piperazin-1-yl)ethanol]	> 7.00
COc1cc(-n2cnc(Nc3nc(N4CCC[C@H]4CO)nc4c3CN(C(=O)OC(C)(C)C)C4)c2)cc(OC)c1OC [Compound 365a, (S)-tert-butyl 2-(2-(hydroxymethyl)pyrrolidin-1-yl)-4-(1-(3,4,5-trimethoxyphenyl)-1H-imidazol-4-ylamino)-5H-pyrrolo[3,4-d]pyrimidine-6(7H)-carboxylate]	> 7.00
COc1cc(-n2cnc(Nc3nc(N4CCC[C@@H]4CO)nc4c3CN(C(C)C)C4=O)c2)cc(OC)c1OC [Compound 275a, (R)-2-(2-(hydroxymethyl)pyrrolidin-1-yl)-6-isopropyl-4-((1-(3,4,5-trimethoxyphenyl)-1H-imidazol-4-yl)amino)-5H-pyrrolo[3,4-d]pyrimidin-7(6H)-one]	> 7.00
COc1cc(-n2cnc(Nc3nc(N4CCC[C@H]4CO)c4ccc(C#N)cc4n3)c2)cc(OC)c1OC [Compound 356b, (S)-4-(2-(hydroxymethyl)pyrrolidin-1-yl)-2-((1-(3,4,5-trimethoxyphenyl)-1H-imidazol-4-yl)amino)quinazoline-7-carbonitrile]	> 7.00
COc1cc(-n2cnc(Nc3nc(N4CCC[C@H]4CO)nn4cccc34)c2)cc(OC)c1OC [Compound 57c, (S)-(1-(4-((1-(3,4,5-trimethoxyphenyl)-1H-imidazol-4-yl)amino)pyrrolo[2,1-f][1,2,4]triazin-2-yl)pyrrolidin-2-yl)methanol]	> 7.00
COc1cc(-n2cnc(Nc3nc(N4[C@H](CO)C[C@H]5C[C@H]54)nc4c3CCC4)c2)cc(OC)c1OC [Compound 396a, ((1R,3S,5R)-2-(4-((1-(3,4,5-trimethoxyphenyl)-1H-imidazol-4-yl)amino)-6,7-dihydro-5H-cyclopenta[d]pyrimidin-2-yl)-2-azabicyclo[3.1.0]hexan-3-yl)methanol]	> 7.00
COc1cc(-n2cnc(Nc3nc(N4CCC[C@H]4C(N)=O)nc4[nH]nc(C)c34)c2)cc(OC)c1OC [Compound 401b, (S)-1-(3-methyl-4-((1-(3,4,5-trimethoxyphenyl)-1H-imidazol-4-yl)amino)-1H-pyrazolo[3,4-d]pyrimidin-6-yl)pyrrolidine-2-carboxamide]	< 6.00
COc1cc(-n2cnc(Nc3nc4c(c(N5CCC[C@H]5CO)n3)CCC4)c2)cc(OC)c1OC [Compound 271c, (S)-(1-(2-((1-(3,4,5-trimethoxyphenyl)-1H-imidazol-4-yl)amino)-6,7-dihydro-5H-cyclopenta[d]pyrimidin-4-yl)pyrrolidin-2-yl)methanol]	> 7.00
COc1cc(-n2cnc(Nc3nc(N4CCC[C@H]4CO)nc4sc(C(=O)OCC(C)C)cc34)c2)cc(OC)c1OC [Compound 92d, (S)-isobutyl 2-(2-(hydroxymethyl)pyrrolidin-1-yl)-4-((1-(3,4,5-trimethoxyphenyl)-1H-imidazol-4-yl)amino)thieno[2,3-d]pyrimidine-6-carboxylate]	6.00 to 7.00
COc1cc(-n2cnc(Nc3cc4ccccc4c(N4CCC[C@H]4CO)n3)c2)cc(OC)c1OC [Compound 346c, (S)-(1-(3-((1-(3,4,5-trimethoxyphenyl)-1H-imidazol-4-yl)amino)isoquinolin-1-yl)pyrrolidin-2-yl)methanol]	6.00 to 7.00
COc1cc(-n2cnc(Nc3nc(N4CCC[C@@H]4C(N)=O)nc4[nH]ccc34)c2)cc(OC)c1OC [Compound 314b, (R)-1-(4-((1-(3,4,5-trimethoxyphenyl)-1H-imidazol-4-yl)amino)-7H-pyrrolo[2,3-d]pyrimidin-2-yl)pyrrolidine-2-carboxamide]	> 7.00
OC[C@@H]1CCCN1c1nc(Nc2cn(-c3cnc4ccccc4c3)cn2)c2cccn2n1 [Compound 38c, (S)-(1-(4-((1-(quinolin-3-yl)-1H-imidazol-4-yl)amino)pyrrolo[2,1-f][1,2,4]triazin-2-yl)pyrrolidin-2-yl)methanol]	> 7.00
COc1cc(-n2cnc(Nc3nc4c(c(N5CCC[C@H]5CO)n3)CN(C(=O)OC(C)(C)C)CC4)c2)cc(OC)c1OC [Compound 181c, (S)-tert-butyl 4-(2-(hydroxymethyl)pyrrolidin-1-yl)-2-((1-(3,4,5-trimethoxyphenyl)-1H-imidazol-4-yl)amino)-7,8-dihydropyrido[4,3-d]pyrimidine-6(5H)-carboxylate]	> 7.00
COc1cc(-n2cnc(Nc3nc(N4CCC[C@H]4CO)nc4c3cnn4[C@H]3CC[C@@H](O)CC3)c2)cc(OC)c1OC [Compound 457c, (cis)-4-(6-((S)-2-(hydroxymethyl)pyrrolidin-1-yl)-4-((1-(3,4,5-trimethoxyphenyl)-1H-imidazol-4-yl)amino)-1H-pyrazolo[3,4-d]pyrimidin-1-yl)cyclohexanol]	> 7.00
COc1cc(-n2cnc(Nc3nc(N4CCC[C@H]4C(N)=O)c4c(ccn4S(=O)(=O)c4ccc(C)cc4)n3)c2)cc(OC)c1OC [Compound 191b, (S)-1-(5-tosyl-2-((1-(3,4,5-trimethoxyphenyl)-1H-imidazol-4-yl)amino)-5H-pyrrolo[3,2-d]pyrimidin-4-yl)pyrrolidine-2-carboxamide]	> 7.00
COc1cc(F)c(CC(=O)N2CCN(c3nc(Nc4cn(-c5ccccc5)cn4)c4cccn4n3)CC2)c(F)c1 [Compound 52a, 2-(2,6-difluoro-4-methoxyphenyl)-1-(4-(4-((1-phenyl-1H-imidazol-4-yl)amino)pyrrolo[2,1-f][1,2,4]triazin-2-yl)piperazin-1-yl)ethanone]	6.00 to 7.00
COc1cc(-n2cnc(Nc3cc4ccccc4c(N4CCC[C@@H]4CO)n3)c2)cc(OC)c1OC [Compound 369b, (R)-(1-(3-(1-(3,4,5-trimethoxyphenyl)-1H-imidazol-4-ylamino)isoquinolin-1-yl)pyrrolidin-2-yl)methanol]	6.00 to 7.00
COc1cc(C)cc(-n2cnc(Nc3nc(N4CCC[C@H]4CO)c4cccn4n3)c2)c1 [Compound 257d, (S)-(1-(2-((1-(3-methoxy-5-methylphenyl)-1H-imidazol-4-yl)amino)pyrrolo[2,1-f][1,2,4]triazin-4-yl)pyrrolidin-2-yl)methanol]	6.00 to 7.00
OC[C@@H]1CCCN1c1nc(Nc2cn(-c3ccc(F)c(F)c3)cn2)c2cccn2n1 [Compound 128c, (S)-(1-(4-((1-(3,4-difluorophenyl)-1H-imidazol-4-yl)amino)pyrrolo[2,1-f][1,2,4]triazin-2-yl)pyrrolidin-2-yl)methanol]	> 7.00
COc1cc(-n2cnc(Nc3nc(N4C[C@@H]5C[C@@H]5[C@H]4CO)c4cccn4n3)c2)cc(OC)c1OC [Compound 332b, ((1S,2S,5R)-3-(2-((1-(3,4,5-trimethoxyphenyl)-1H-imidazol-4-yl)amino)pyrrolo[2,1-f][1,2,4]triazin-4-yl)-3-azabicyclo[3.1.0]hexan-2-yl)methanol]	> 7.00
COc1cc(C(=O)N(C)C)cc(-n2cnc(Nc3nc(N4CCC[C@H]4CO)nn4cccc34)c2)c1 [Compound 426c, (S)-3-(4-((2-(2-(hydroxymethyl)pyrrolidin-1-yl)pyrrolo[2,1-f][1,2,4]triazin-4-yl)amino)-1H-imidazol-1-yl)-5-methoxy-N,N-dimethylbenzamide]	> 7.00
COc1cc(-n2cnc(Nc3nc(N4CCC[C@H]4CO)c4ccc(C(F)(F)F)cc4n3)c2)cc(OC)c1OC [Compound 286b, (S)-(1-(7-(trifluoromethyl)-2-((1-(3,4,5-trimethoxyphenyl)-1H-imidazol-4-yl)amino)quinazolin-4-yl)pyrrolidin-2-yl)methanol]	> 7.00
